These results are taken from paper PMC7206119, “RIP1 inhibition blocks inflammatory diseases but not tumor growth or metastases” (Cell Death and Differentiation, 2019).

Each structure is given as a SMILES string.

Targets include KIT-autoinhibited (Homo sapiens, UniProt P10721); DMPK (Homo sapiens, UniProt Q09013); MAP4K2 (Homo sapiens, UniProt Q12851); CSNK1A1 (Homo sapiens, UniProt P48729); RET(M918T) (Homo sapiens, UniProt P07949, M918T); IRAK4 (Homo sapiens, UniProt Q9NWZ3); CDKL3 (Homo sapiens, UniProt Q8IVW4); TAOK1 (Homo sapiens, UniProt Q7L7X3); PIK3CA(H1047L) (Homo sapiens, UniProt P42336, H1047L); PIK3CG (Homo sapiens, UniProt P48736); MYO3A (Homo sapiens, UniProt Q8NEV4); LYN (Homo sapiens, UniProt P07948); PIM3 (Homo sapiens, UniProt Q86V86); MET(M1250T) (Homo sapiens, UniProt P08581, M1250T); CDK7 (Homo sapiens, UniProt P50613).

Holding throughout (assay): biochemical
What all share (parameters): DiscoverX kinase panel, active-site competition binding (KINOMEscan type), percent of control at one concentration
Common to all, as to settings: competition binding, percent of control

Another experiment concerns the target T1, MST1 (Homo sapiens, UniProt Q13043).
T1 construct: gene STK4

In the next experiment the target is T2, ERK4 (Homo sapiens, UniProt P31152).
T2 construct: gene MAPK4
T2 sequence (P31152 whole entry): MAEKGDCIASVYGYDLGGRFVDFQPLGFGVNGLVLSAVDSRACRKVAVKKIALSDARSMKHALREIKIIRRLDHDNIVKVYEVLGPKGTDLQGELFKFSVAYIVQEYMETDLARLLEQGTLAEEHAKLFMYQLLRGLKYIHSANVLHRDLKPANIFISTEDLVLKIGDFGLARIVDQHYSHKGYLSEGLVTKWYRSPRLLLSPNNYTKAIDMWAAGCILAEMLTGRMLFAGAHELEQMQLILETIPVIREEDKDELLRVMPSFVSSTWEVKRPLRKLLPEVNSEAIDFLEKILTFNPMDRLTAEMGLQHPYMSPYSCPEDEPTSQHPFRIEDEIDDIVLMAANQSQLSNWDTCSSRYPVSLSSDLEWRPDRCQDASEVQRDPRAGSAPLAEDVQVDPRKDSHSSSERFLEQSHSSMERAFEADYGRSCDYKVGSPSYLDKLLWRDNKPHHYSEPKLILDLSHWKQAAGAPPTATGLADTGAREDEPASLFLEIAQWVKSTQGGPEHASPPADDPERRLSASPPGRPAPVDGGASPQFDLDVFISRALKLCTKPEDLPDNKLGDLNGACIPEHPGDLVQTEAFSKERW

For experiment [1], the target named is T3, RPS6KA4(Kin.Dom.1-N-terminal) (Homo sapiens, UniProt O75676).
T3 construct: Kin.Dom.1-N-terminal

In experiment [2] the target is T4, RSK3(Kin.Dom.1-N-terminal) (Homo sapiens, UniProt Q15349).
T4 construct: gene RPS6KA2; Kin.Dom.1-N-terminal

Another experiment has as its target T5, PFTAIRE2 (Homo sapiens, UniProt Q96Q40).
T5 construct: gene CDK15

A further experiment has as its target T6, ZAK (Homo sapiens, UniProt Q9NYL2).
T6 construct: gene MAP3K20

T5 sequence (Q96Q40 whole entry): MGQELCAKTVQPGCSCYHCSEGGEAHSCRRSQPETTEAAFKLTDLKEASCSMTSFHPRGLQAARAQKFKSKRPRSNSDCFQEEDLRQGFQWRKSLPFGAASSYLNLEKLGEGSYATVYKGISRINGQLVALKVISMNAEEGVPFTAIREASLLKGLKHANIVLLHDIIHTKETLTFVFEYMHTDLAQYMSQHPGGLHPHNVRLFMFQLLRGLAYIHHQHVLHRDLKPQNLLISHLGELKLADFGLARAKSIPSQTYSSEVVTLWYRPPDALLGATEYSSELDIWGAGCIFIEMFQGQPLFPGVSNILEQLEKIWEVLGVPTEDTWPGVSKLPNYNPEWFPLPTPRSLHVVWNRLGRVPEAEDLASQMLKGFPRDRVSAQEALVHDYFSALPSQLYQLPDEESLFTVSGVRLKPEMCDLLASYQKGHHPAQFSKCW
Sequence of IRAK4 (Q9NWZ3 whole entry): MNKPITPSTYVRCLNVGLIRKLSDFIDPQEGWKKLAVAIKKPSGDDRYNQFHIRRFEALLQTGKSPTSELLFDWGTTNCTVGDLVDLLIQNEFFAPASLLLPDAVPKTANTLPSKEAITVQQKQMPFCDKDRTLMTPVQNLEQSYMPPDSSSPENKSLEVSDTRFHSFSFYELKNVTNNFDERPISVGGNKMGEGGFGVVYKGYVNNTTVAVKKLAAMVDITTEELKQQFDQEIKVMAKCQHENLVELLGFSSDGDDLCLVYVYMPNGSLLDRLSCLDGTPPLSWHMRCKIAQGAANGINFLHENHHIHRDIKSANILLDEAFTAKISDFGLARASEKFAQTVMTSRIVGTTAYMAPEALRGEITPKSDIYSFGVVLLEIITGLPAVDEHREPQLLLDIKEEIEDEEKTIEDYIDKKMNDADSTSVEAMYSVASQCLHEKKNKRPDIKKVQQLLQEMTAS
Sequence of MET(M1250T) (P08581 whole entry M1250T): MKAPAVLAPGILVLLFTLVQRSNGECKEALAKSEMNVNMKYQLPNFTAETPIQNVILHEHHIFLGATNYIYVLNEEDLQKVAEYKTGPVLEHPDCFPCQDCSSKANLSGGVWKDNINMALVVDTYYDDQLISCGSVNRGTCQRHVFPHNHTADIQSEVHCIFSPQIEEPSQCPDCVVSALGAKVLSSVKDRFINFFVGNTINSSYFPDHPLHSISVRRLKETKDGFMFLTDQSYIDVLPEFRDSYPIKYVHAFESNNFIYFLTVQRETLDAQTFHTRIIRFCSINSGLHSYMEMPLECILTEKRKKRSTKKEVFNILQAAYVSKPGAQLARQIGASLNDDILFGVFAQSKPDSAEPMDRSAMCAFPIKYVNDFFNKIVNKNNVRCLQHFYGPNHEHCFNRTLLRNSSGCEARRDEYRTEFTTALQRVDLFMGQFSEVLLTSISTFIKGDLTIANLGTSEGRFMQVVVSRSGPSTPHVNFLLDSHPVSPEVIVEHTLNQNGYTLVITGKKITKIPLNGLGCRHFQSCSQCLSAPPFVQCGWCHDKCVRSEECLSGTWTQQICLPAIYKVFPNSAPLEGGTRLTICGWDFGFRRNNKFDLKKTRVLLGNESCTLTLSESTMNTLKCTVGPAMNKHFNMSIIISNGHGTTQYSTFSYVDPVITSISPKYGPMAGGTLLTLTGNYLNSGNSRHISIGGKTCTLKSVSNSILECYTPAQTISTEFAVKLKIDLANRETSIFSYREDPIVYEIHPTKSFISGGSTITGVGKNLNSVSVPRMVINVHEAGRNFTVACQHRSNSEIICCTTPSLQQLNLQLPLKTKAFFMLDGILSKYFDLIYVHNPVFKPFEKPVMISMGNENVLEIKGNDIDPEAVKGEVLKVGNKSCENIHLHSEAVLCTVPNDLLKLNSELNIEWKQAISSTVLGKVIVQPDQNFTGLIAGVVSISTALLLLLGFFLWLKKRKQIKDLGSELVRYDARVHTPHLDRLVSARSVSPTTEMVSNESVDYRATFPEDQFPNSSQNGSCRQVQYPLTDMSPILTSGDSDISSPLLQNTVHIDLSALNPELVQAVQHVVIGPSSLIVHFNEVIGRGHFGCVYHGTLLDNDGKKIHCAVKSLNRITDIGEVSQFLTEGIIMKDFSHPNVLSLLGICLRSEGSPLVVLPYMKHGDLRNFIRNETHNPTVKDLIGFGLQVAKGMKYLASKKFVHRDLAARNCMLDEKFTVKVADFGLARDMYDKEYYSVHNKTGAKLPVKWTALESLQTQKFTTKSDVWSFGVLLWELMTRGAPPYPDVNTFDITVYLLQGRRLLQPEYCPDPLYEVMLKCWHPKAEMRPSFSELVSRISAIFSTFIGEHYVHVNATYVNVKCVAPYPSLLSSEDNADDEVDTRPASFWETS
Sequence of PIK3CA(H1047L) (P42336 whole entry H1047L): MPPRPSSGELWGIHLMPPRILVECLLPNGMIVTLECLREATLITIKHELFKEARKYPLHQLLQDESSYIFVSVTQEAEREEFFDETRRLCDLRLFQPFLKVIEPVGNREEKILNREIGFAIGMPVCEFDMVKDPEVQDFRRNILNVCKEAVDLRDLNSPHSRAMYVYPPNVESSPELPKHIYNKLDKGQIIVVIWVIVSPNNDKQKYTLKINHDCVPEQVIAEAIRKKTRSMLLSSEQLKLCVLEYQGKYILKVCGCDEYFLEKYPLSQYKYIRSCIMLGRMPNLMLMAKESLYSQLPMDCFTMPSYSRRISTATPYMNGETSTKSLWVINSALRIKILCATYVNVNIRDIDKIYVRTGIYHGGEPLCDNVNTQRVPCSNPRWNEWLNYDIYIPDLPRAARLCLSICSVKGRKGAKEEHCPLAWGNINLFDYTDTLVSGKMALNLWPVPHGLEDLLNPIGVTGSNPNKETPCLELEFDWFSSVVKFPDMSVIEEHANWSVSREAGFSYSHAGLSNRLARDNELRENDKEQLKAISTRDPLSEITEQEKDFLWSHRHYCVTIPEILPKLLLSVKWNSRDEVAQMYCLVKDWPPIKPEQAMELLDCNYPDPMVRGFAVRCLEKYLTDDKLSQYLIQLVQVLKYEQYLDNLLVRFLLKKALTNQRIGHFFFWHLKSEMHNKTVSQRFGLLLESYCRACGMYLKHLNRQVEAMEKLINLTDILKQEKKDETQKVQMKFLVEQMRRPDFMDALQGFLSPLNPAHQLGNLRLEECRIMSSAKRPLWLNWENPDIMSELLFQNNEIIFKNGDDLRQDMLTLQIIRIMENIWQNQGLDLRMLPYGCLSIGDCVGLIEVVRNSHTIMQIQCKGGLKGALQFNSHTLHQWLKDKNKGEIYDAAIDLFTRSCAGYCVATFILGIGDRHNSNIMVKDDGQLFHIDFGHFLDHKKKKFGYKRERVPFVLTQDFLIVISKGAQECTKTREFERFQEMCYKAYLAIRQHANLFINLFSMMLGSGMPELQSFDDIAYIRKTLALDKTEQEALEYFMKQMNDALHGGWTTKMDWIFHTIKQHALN
Sequence of TAOK1 (Q7L7X3 whole entry): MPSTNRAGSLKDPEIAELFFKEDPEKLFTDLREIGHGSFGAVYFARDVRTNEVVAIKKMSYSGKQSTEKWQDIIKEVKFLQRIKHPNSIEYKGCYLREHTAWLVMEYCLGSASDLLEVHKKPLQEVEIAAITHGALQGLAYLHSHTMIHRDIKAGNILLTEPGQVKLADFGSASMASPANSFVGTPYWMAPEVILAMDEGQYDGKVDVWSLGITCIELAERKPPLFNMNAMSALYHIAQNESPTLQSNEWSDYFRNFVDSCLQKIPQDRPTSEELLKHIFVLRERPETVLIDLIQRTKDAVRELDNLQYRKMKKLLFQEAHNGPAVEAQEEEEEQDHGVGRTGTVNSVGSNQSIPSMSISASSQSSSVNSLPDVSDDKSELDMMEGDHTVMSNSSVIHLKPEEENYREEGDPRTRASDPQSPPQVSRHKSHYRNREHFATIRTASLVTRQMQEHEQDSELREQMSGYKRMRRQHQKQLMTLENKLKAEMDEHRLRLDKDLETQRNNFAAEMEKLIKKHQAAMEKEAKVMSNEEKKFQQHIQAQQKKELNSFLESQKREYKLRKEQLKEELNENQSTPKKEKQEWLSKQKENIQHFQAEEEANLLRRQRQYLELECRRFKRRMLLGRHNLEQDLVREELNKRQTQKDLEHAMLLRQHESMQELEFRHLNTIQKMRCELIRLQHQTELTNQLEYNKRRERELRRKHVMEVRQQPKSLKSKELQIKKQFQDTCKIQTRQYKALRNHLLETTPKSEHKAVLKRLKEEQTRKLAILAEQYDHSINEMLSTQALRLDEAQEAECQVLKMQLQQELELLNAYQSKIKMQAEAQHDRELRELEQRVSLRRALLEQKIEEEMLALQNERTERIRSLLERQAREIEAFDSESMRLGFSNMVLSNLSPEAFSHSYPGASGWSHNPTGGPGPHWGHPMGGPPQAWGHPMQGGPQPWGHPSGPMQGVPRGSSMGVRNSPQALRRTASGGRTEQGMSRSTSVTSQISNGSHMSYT

As to `COc1cc2c(cn1)N(C)C(=O)[C@@H](NC(=O)c1nc3n(n1)[C@H](c1ccccc1)CC3)CC2` [GNE684, (S)-N-((S)-7-methoxy-1-methyl-2-oxo-2,3,4,5-tetrahydro-1H-pyrido[3,4-b]azepin-3-yl)-5-phenyl-6,7-dihydro-5H-pyrrolo[1,2-b][1,2,4]triazole-2-carboxamide], the remaining binding at 10 µM worked out at 85% on MST1; 96% on ERK4; 93% on KIT-autoinhibited; 83% at DMPK; 100% on MAP4K2; 87% at CSNK1A1. The remaining binding at 10 µM was determined as 89% on RET(M918T); 100% at IRAK4; 75% in [1]; 92% in experiment [2]; 69% on CDKL3; 100% at TAOK1. Moreover, the remaining binding at 10 µM at PIK3CA(H1047L) came out at 95%; at PIK3CG, 89%; on MYO3A, 95%; on LYN it was 94%; on PIM3, 100%; on PFTAIRE2, 100%. Also, the remaining binding at 10 µM turned out to be 100% at MET(M1250T), 75% at CDK7 and 99% on ZAK.
